Results as given in patent US10231985B2, “Compounds and compositions comprising such compounds for the prevention or treatment of dyslipidaemias” (CENTRE NATIONAL DE LA RECHERCHE SCIENTIFIQUE, priority 2013, dated 2019).

Legend:
[1] = tested on: hem1Δ yeasts grown under SFA accumulation conditions; test: Restoration of growth of lipointoxicated hem1Δ yeast; type: cell-based, Saccharomyces cerevisiae; conditions: after 3 days, increasing concentrations
Description: The strain bearing the hem1Δ mutation is grown, under aerobic conditions, with shaking and at 28° C., in liquid YPG^A medium (YPG (1% yeast extract (w/v), 1% peptone (w/v) and 2% glucose (w/v)) supplemented with 80 μg/ml 6-aminolevulinic acid (ALA)). Lipointoxication by saturated fatty acids (SFA) is caused by depletion of unsaturated fatty acids (UFA), the synthesis of which is dependent on the presence of heme (the prosthetic group of the Ole1p enzyme in particular), by transfer to YPG^+ medium (YPG supplemented with 80 μg/ml ergosterol to compensate for the sterol depletion obtained under this condition). Lipointoxication can be induced on solid YPG^+ medium+2% agar (w/v) by transferring 3500 cells (hem1Δ from preculture in YPG^A) per cm^2 or, alternatively, in liquid medium by inoculating 2×10^6 cells/ml YPG^+. Classically, the effects of SFA lipointoxication are analyzed 7 hours after the transfer to YPG^+ medium. The ability of a compound to counter the deleterious effects of SFA lipointoxication, in turn, is evaluated successively to the addition of this compound on (or in) the YPG^+ transfer medium, after seeding with the cells.
Following the induction of SFA lipointoxication (for hem1Δ grown on solid medium) 5 μl drops of solutions of the various compounds at 10 mM in dimethylsulfoxide (DMSO) or ethanol (EtOH) are deposited on the surface of the agar. The ability of a compound to counter the arrest of lipid-induced cell growth is estimated by the appearance of a halo of hem1Δ colonies at the site of the deposition of said compound after 3 days of culture at 28° C. (see Deguil et al., 2011).
Jointly with the induction of SFA lipointoxication (for hem1Δ in liquid medium), the various compounds are added to the cultures at an initial concentration of 200 μM. Proliferation is monitored by spectrometric measurement of cell density, at regular time intervals (every hour over the duration of the observation). At a wavelength of 600 nm, one optical density unit (OD600 nm) corresponds to 2×10^7 cells/ml.

[2] = tested on: QM strain (cells not synthesizing triglycerides); test: Toxicity test on QM strain (growth inhibition halos); type: cell-based, Saccharomyces cerevisiae; conditions: 5 μl drops on agar, after three days
Description: Drops (5 μl) of OAG, LPA or oleic acid were deposited, from stock solutions at the indicated concentrations, on the surface of an agar medium over which the QM strain had been spread beforehand. […] These halos are, however, not observed in the presence of LPA or of OAG.
In parallel, wild-type (WT) and quadruple mutant (QM) strains are grown, under aerobic conditions, with shaking and at 28° C., in liquid YPG medium before seeding 3500 cells per cm^2 of YPG+2% agar (w/v). Following this transfer to solid medium, 1 μl drops of 1, 10 and 100 mM solutions of the various compounds in DMSO or EtOH are deposited on the agar surface. Separately, DMSO and EtOH are also deposited in order to evaluate the intrinsic toxicity of these two solvents. After 3 days of culture at 28° C., the toxicity of the compounds tested is evaluated by comparing the growth inhibition halo diameters obtained for the depositions of pure solvent with those of the depositions of the various concentrations of the compounds tested. Unlike the WT strain, the QM strain is incapable of buffering excess exogenous oleic acid in the form of neutral lipids (triglycerides (TG) or esterified sterols (ES)) in lipid droplets.

[3] = tested on: BRIN-BD11 pancreatic β-cells; test: Cell viability of palmitic acid-lipointoxicated pancreatic β-cells (propidium iodide, flow cytometry); type: cell-based, rat; conditions: BRIN-BD11, 200 μM palmitic acid
Description: Pancreatic β-cells, BRIN-BD11, were grown under control conditions or in the presence of an exogenous source of saturated fatty acid (200 μM palmitic acid), as described by Dhayal & Morgan (2011), in order to generate lipointoxication conditions, with or without the addition of OAG. A) The proportion of dead cells was estimated in the absence (control) or presence of palmitic acid, for increasing concentrations of OAG. B) eIF2α phosphorylation levels were also analyzed under the various conditions by Western blot, in the presence or absence (Ø) of OAG, and were normalized to total eIF2α.
The lipid species are prepared in ethanol before being complexed with bovine serum albumin (BSA, first depleted of fatty acids) by incubation for 1 hour at 37° C. The palmitic acid stock solution is obtained by adding one volume of ethanol before the whole is heated to 70° C. for homogenization. OAG and LPA solutions are prepared in 100% ethanol at room temperature. For the incubations of mammalian cells, the final BSA and ethanol concentrations in the culture medium are kept at 1% and 0.5% (w/v), respectively.
The rat pancreatic β-cell line (BRIN-BD11) is grown in complete RPMI-1640 medium, containing 11 mM glucose and supplemented with 10% (v/v) fetal calf serum (FCS), 2 mM L-glutamine, 100 U/ml penicillin and 100 μg/ml streptomycin. For each experiment, the cells are first seeded at a density of 0.5×10^5 cells/ml in 6-well plates for 24 hours. Thereafter, the complete medium is replaced by an equivalent lacking FCS but containing the lipid reagents of interest, at the desired concentrations, complexed with BSA. Under the control conditions, identical amounts of BSA and ethanol are then used. […] After incubation on ice for 10 minutes, the samples thus obtained are analyzed by flow cytometry. A Beckman Coulter EPICS XL MCL is used for the quantification, an FL3 channel is used to detect the emissions of the PI intercalated in the DNA, and the analysis is carried out using the EXPO32 ADC software (Applied Cytometry Systems, V 1.1 build 207).

lipase = test: Resistance to hydrolytic activity of lipases (thin-layer chromatography); type: in vitro ADME; conditions: 10 U of lipase, 30 minutes, 37° C.
Description: OAG (15 μmol) and N,N-diethanololeamide were subjected (+) or not (−) to exposure to 10 U of lipase for 30 minutes at 37° C. Following the incubation, the lipid species were extracted from the samples before being separated by thin-layer chromatography.

[4] = tested on: phospholipids of the cellular membranes (hem1Δ strain); test: Fatty acid content of cellular phospholipids (lipid extraction, ESI-MS); type: cell-based, Saccharomyces cerevisiae
Description: The hem1Δ strain is grown in liquid medium (YPG^A, YPG^+, or YPG^++200 μM compound to be tested) under aerobic conditions, with shaking and at 28° C. for 7 hours, from an initial cell concentration of 2×10^6 cells/ml. At the conclusion of the culture, 10^8 cells are collected in order to carry out a total lipid extraction. After having suspended the cells in 1 ml of distilled water at 4° C., 500 μl of glass beads (Ø 0.6 mm) are added and the whole then undergoes 3 sequences of 20 seconds at 5000 rpm in a shaker (the tubes are kept on ice between each of the 3 sequences). The cell lysate then obtained, supplemented with bead-washing solution (1 ml), is then transferred to a 40 ml glass tube (Corex™) before carrying out the lipid extraction using a 2:1 (v/v) methanol:chloroform ratio. First, 6 ml of methanol is added and the whole is vortexed for 30 seconds and then incubated for 15 minutes at 65° C. Once the mixture cools to room temperature, 3 ml of chloroform is added and then the whole is vortexed again for 30 seconds before allowing the extraction to proceed for 16 hours. Later, the sample is centrifuged for 12 minutes at 10000 g before transferring the supernatant to a new Corex™ tube. After adding 2 ml of chloroform and then 4 ml of distilled water, the whole is vortexed for 30 seconds and then centrifuged for 8 minutes at 3000 g. After removing the resulting upper phase, the lower organic phase is collected in a glass hemolysis tube. Finally, the solvent is evaporated under a stream of nitrogen at 80° C. in order to obtain the total cellular lipid samples.
The total cellular lipid samples are resuspended in 1 ml of dichloromethane while being vortexed for 30 seconds. The whole is deposited on a silica column (BOND ELUT-SI, 100 mg 1 ml) preconditioned successively with 3 ml of methanol and then 2 ml of dichloromethane. The fraction retained by the column is then washed successively with 2 ml of dichloromethane and then 3 ml of acetone. Finally, 2 ml of a 50:45:5 (v/v/v) chloroform/methanol/water mixture is deposited on the column and the phospholipids thus eluted are collected in a glass hemolysis tube. The solvent is evaporated under nitrogen at 80° C. in order to obtain the cellular phospholipid samples.
Once resuspended in 100 μl of the mixture Mix^− (2:1:1 (v/v/v) isopropanol/acetonitrile/water+1% (v/v) triethylamine) or the mixture Mix^+ (2:1:1 (v/v/v) isopropanol/acetonitrile/water+1% (v/v) formic acid), the samples are analyzed by electrospray ionization mass spectrometry (ESI-MS) in negative or positive mode, respectively, and the results obtained are used to analyze the fatty acid content of the various phospholipid species.

CCCCCCCC/C=C\CCCCCCCC(=O)O [oleic acid, reference compound]
Restoration of the growth of hem1Δ yeasts [1]: restore the growth | Growth inhibition halos on QM strain [2]: growth inhibition halos (absence of colonies) can be observed

CCCCCCCC/C=C\CCCCCCCC(=O)N(CCO)CCO [N,N-diethanololeamide]
Apoptosis / proportion of dead cells of pancreatic β-cells [3]: prevent apoptosis | Hydrolysis by lipases (lipase): resists hydrolysis by lipases | Effect on fatty acid composition of membrane phospholipids [4]: without restoring a normal diunsaturated phospholipid composition

CCCCCCCC/C=C\CCCCCCCC(=O)OCC(CO)(CO)CO [3-hydroxy-2,2-bis(hydroxymethyl)propyl oleate]
Apoptosis / proportion of dead cells of pancreatic β-cells [3]: prevent apoptosis | Effect on fatty acid composition of membrane phospholipids [4]: without restoring a normal diunsaturated phospholipid composition
